The values below come from patent US11560371B2, “Cereblon binding compounds, compositions thereof, and methods of treatment therewith” (Celgene Corporation, priority 2020, dated 2023).

Each structure is given as a SMILES string. Where a name gives a salt, the structure may show the parent alone.

By DC50 is commonly meant the concentration at which degradation of the target reaches its halfway point. A higher DC50 goes with degradation only at high concentration.

This experiment has as its target T1, AR (Homo sapiens, UniProt P10275).
T1 construct: endogenous in cells; host or cells: VCaP cells
T1 sequence (P10275 1-920): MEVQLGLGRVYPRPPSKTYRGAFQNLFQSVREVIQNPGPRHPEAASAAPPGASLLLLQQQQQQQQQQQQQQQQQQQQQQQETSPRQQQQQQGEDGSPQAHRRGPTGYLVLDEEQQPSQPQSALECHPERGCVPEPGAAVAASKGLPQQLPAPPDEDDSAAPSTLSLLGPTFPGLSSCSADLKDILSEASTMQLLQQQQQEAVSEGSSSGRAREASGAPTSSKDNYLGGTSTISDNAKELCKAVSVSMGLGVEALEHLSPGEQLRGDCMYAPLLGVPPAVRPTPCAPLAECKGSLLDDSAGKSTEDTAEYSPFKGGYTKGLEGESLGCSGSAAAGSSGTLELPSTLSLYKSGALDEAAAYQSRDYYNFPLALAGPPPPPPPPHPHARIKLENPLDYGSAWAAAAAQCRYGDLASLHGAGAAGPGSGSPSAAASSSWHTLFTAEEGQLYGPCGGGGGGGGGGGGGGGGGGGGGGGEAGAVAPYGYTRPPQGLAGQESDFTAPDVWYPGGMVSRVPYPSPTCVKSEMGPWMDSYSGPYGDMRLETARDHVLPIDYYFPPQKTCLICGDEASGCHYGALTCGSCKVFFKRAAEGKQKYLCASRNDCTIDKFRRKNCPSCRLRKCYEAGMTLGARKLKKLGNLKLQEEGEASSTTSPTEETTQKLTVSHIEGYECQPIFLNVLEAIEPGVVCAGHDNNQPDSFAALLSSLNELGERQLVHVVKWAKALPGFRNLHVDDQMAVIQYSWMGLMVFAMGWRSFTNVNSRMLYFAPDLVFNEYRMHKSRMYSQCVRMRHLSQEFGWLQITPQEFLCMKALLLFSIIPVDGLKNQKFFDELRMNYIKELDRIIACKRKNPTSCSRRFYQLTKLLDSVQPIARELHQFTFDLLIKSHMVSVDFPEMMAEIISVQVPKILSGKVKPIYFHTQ
Put plainly: VCAP AR Degradation Assay. As to conditions: VCaP cells, 24 h, AR ELISA; for DC50: concentration of compound when AR level = 50% of DMSO control (50% AR degradation); for Y: lowest measured AR level normalized to DMSO control (AR degradation efficiency). It counts as cell-based. The protocol:
VCAP AR Degradation Assay. Test compounds were pre-dispensed into a Corning CellBind 96-well clear bottom plate (Cat #3300) using an acoustic dispenser to make a 10-point concentration series at 1:3 dilution for each compound. The final top concentration of each compound was 5 μM. DMSO at a final concentration of 0.1% was used as a control. VCaP cells cultured in DMEM with 8% fetal bovine serum (FBS) were seeded at 50K cells per well in a 200 μL volume into the compound plate and incubated at 37° C. in a CO2 incubator for 24 h. The medium was carefully removed from the cells and the plate was placed on ice. […] ice-cold 1× cell lysis buffer from Cell Signaling Technologies (Cat #9803) was added to each well of the cells and the plate was incubated at 4° C. on a shaker for 1 h. Fifteen μL of cell lysate was used for AR ELISA detection using a PathScan Total Sandwich AR ELISA kit (Cell Signaling Technology, Cat #12580). AR levels in compound-treated wells were normalized to that of DMSO control and expressed as percent of control (PoC) (y). A Four Parameter Logistic Model (Sigmoidal Dose-Response Model) was used to determine the compound's DC50, and EC50, using the following equation: y=(A+((B−A)/(1+((C/x)^D)))) • A=YMin (lowest AR level normalized to DMSO control in response to compound treatment, as determined by curve fit) • B=YMax (maximum AR level as determined by curve fit) • C=EC50 • D=Hill Slope • x=compound concentration • EC50=the concentration of compound when y=[…] • DC50=the concentration of the compound when y=50% of DMSO control (50% AR degradation) • y=AR protein level normalized to DMSO control
The lowest measured AR level normalized to DMSO control in response to compound treatment, termed Y value, was used to characterize the compound-mediated AR degradation efficiency.

`Cn1nc(N2CCC(=O)NC2=O)c2cccc(NC(=O)CN3CCN(CCC[C@H]4CC[C@H](N5C(=S)N(c6ccc(C#N)c(C(F)(F)F)c6)C(=O)C5(C)C)CC4)C[C@@H]3C(F)(F)F)c21` [Cmpd 23, 2-((R)-4-(3-(trans-4-(3-(4-cyano-3-(trifluoromethyl)phenyl)-5,5-dimethyl-4-oxo-2-thioxoimidazolidin-1-yl)cyclohexyl)propyl)-2-(trifluoromethyl)piperazin-1-yl)-N-(3-(2,4-dioxotetrahydropyrimidin-1(2H)-yl)-1-methyl-1H-indazol-7-yl)acetamide]: the DC50 lay within 2 to 10 nM and the Y result was “** (20%<Y≤%)”.

For `C[C@@H]1C[C@H](OCCO[C@H]2CC[C@H](N3C(=S)N(c4ccc(C#N)c(C(F)(F)F)c4)C(=O)C3(C)C)CC2)C[C@H](C)N1CC(=O)Nc1cccc2c(N3CCC(=O)NC3=O)nn(C)c12` [Cmpd 33, 2-((2R,4r,6S)-4-(2-(((trans)-4-(3-(4-Cyano-3-(trifluoromethyl)phenyl)-5,5-dimethyl-4-oxo-2-thioxoimidazolidin-1-yl)cyclohexyl)oxy)ethoxy)-2,6-dimethylpiperidin-1-yl)-N-(3-(2,4-dioxotetrahydropyrimidin-1(2H)-yl)-1-methyl-1H-indazol-7-yl)acetamide], the 50% degradation concentration (DC50) was 2 to 10 nM and the Y entry is listed as “** (20%<Y≤%)”.

In the case of `C[C@@H]1CN(CCO[C@H]2CC[C@H](N3C(=S)N(c4ccc(C#N)c(C(F)(F)F)c4)C(=O)C3(C)C)CC2)C[C@H](C)N1CCNc1cccc2c(N3CCC(=O)NC3=O)nn(C)c12` [Cmpd 18, 4-(3-(trans-4-(2-((3R,5S)-4-(2-((3-(2,4-Dioxotetrahydropyrimidin-1(2H)-yl)-1-methyl-1H-indazol-7-yl)amino)ethyl)-3,5-dimethylpiperazin-1-yl)ethoxy)cyclohexyl)-4,4-dimethyl-5-oxo-2-thioxoimidazolidin-1-yl)-2-(trifluoromethyl)benzonitrile hydrochloride], the Y result is given as “*** (30%<Y<60%)”. The compound further yielded a DC50 (hydrochloride) of 10 to 100 nM.

For `C[C@@H]1CN(CCC[C@H]2CC[C@H](N3C(=S)N(c4ccc(C#N)c(C(F)(F)F)c4)C(=O)C3(C)C)CC2)C[C@H](C)N1CC(=O)Nc1cccc2c(N3CCC(=O)NC3=O)nn(C)c12` [Cmpd 2, 2-((2R,6S)-4-(3-(trans-4-(3-(4-Cyano-3-(trifluoromethyl)phenyl)-5,5-dimethyl-4-oxo-2-thioxoimidazolidin-1-yl)cyclohexyl)propyl)-2,6-dimethylpiperazin-1-yl)-N-(3-(2,4-dioxotetrahydropyrimidin-1(2H)-yl)-1-methyl-1H-indazol-7-yl)acetamide hydrochloride], the 50% degradation concentration (DC50) fell in the range of 2 to 10 nM and the Y entry was “** (20%<Y≤%)”.

`C[C@@H]1C[C@H](CCO[C@H]2CC[C@H](N3C(=S)N(c4ccc(C#N)c(C(F)(F)F)c4)C(=O)C3(C)C)CC2)C[C@H](C)N1CC(=O)Nc1cccc2c(N3CCC(=O)NC3=O)nn(C)c12` [Cmpd 14, 2-((2R,4r,6S)-4-(2-((trans-4-(3-(4-Cyano-3-(trifluoromethyl)phenyl)-5,5-dimethyl-4-oxo-2-thioxoimidazolidin-1-yl)cyclohexyl)oxy)ethyl)-2,6-dimethylpiperidin-1-yl)-N-(3-(2,4-dioxotetrahydropyrimidin-1(2H)-yl)-1-methyl-1H-indazol-7-yl)acetamide hydrochloride]: the DC50 is 2 to 10 nM and the Y result was “* (0<Y≤20%)”.

For the compound `C[C@@H]1C[C@H](OCC[C@H]2CC[C@H](N3C(=S)N(c4ccc(C#N)c(C(F)(F)F)c4)C(=O)C3(C)C)CC2)C[C@H](C)N1CC(=O)Nc1cccc2c(N3CCC(=O)NC3=O)nn(C)c12` [Cmpd 31, 2-((2R,4r,6S)-4-(2-((trans)-4-(3-(4-Cyano-3-(trifluoromethyl)phenyl)-5,5-dimethyl-4-oxo-2-thioxoimidazolidin-1-yl)cyclohexyl)ethoxy)-2,6-dimethylpiperidin-1-yl)-N-(3-(2,4-dioxotetrahydropyrimidin-1(2H)-yl)-1-methyl-1H-indazol-7-yl)acetamide], the 50% degradation concentration (DC50) lay within 2 to 10 nM and the Y entry is given as “** (20%<Y≤%)”.

With `C[C@@H]1C[C@H](OCCC[C@H]2CC[C@H](N3C(=S)N(c4ccc(C#N)c(C(F)(F)F)c4)C(=O)C3(C)C)CC2)C[C@H](C)N1CC(=O)Nc1cccc2c(N3CCC(=O)NC3=O)nn(C)c12` [Cmpd 29, 2-((2R,4r,6S)-4-(3-((trans)-4-(3-(4-Cyano-3-(trifluoromethyl)phenyl)-5,5-dimethyl-4-oxo-2-thioxoimidazolidin-1-yl)cyclohexyl)propoxy)-2,6-dimethylpiperidin-1-yl)-N-(3-(2,4-dioxotetrahydropyrimidin-1(2H)-yl)-1-methyl-1H-indazol-7-yl)acetamide], the DC50 is 10 to 100 nM and the Y entry is “* (0<Y≤20%)”.

As to `Cn1nc(N2CCC(=O)NC2=O)c2cccc(NC(=O)CN3CCN(CCCO[C@H]4CC[C@H](N5C(=S)N(c6cnc(C#N)c(C(F)(F)F)c6)C(=O)C5(C)C)CC4)C[C@@H]3C(F)(F)F)c21` [Cmpd 24, 2-((R)-4-(3-(((trans)-4-(3-(6-cyano-5-(trifluoromethyl)pyridin-3-yl)-5,5-dimethyl-4-oxo-2-thioxoimidazolidin-1-yl)cyclohexyl)oxy)propyl)-2-(trifluoromethyl)piperazin-1-yl)-N-(3-(2,4-dioxotetrahydropyrimidin-1(2H)-yl)-1-methyl-1H-indazol-7-yl)acetamide], the half-maximal degradation concentration (DC50) is at most 2 nM and the Y entry is “* (0<Y≤20%)”.

As for `C[C@@H]1CN(CCCC[C@H]2CC[C@H](N3C(=S)N(c4ccc(C#N)c(C(F)(F)F)c4)C(=O)C3(C)C)CC2)C[C@H](C)N1CC(=O)Nc1cccc2c(N3CCC(=O)NC3=O)nn(C)c12` [Cmpd 17, 2-((2R,6S)-4-(4-(trans-4-(3-(4-Cyano-3-(trifluoromethyl)phenyl)-5,5-dimethyl-4-oxo-2-thioxoimidazolidin-1-yl)cyclohexyl)butyl)-2,6-dimethylpiperazin-1-yl)-N-(3-(2,4-dioxotetrahydropyrimidin-1(2H)-yl)-1-methyl-1H-indazol-7-yl)acetamide hydrochloride], the 50% degradation concentration (DC50) lay within 2 to 10 nM and the Y result is “** (20%<Y≤%)”.

`C[C@@H]1CN(CCO[C@H]2CC[C@H](N3C(=S)N(c4ccc(C#N)c(S(F)(F)(F)(F)F)c4)C(=O)C3(C)C)CC2)C[C@H](C)N1CC(=O)Nc1cccc2c(N3CCC(=O)NC3=O)nn(C)c12` [Cmpd 21, 2-((2S,6R)-4-(2-((trans-4-(3-(4-Cyano-3-(pentafluoro-λ^6-sulfaneyl)phenyl)-5,5-dimethyl-4-oxo-2-thioxoimidazolidin-1-yl)cyclohexyl)oxy)ethyl)-2,6-dimethylpiperazin-1-yl)-N-(3-(2,4-dioxotetrahydropyrimidin-1(2H)-yl)-1-methyl-1H-indazol-7-yl)acetamide hydrochloride]: the DC50 was in the range of 100 to 10000 nM and the Y result is “*** (30%<Y<60%)”.
